Results reported in US11485728B2, “Small molecules for the treatment of autoimmune diseases and cancer” (Athos Therapeutics, Inc., priority 2020, dated 2022).
Like-named read-outs stand apart in the source and are kept apart here.

How the values were obtained:
[1] = test system: CaCo-2 intestinal epithelial cells; test: Transepithelial resistance (TEER) of CaCo-2 cells exposed to TNFα and IFNγ; assay type: cell-based; conditions: for epithelial barrier resistance: TNFα 10 ng/ml, IFNγ 100 ng/ml, compounds 1 μM, 48 hrs of treatment; for transepithelial resistance after combined TNFα and IFNγ exposure: TNFα 20 ng/ml, IFNγ 200 ng/ml, 24 hrs of treatment
Procedure: The intestinal epithelial barrier plays a central role in the pathophysiology of multiple chronic inflammatory and autoimmune diseases. Intestinal epithelial cells provide a physical barrier that interacts with immune cells and protects internal cavities from mucosal bacterial and antigen intrusion. Intestinal inflammation during IBD is associated with disruption of this barrier and cytokines like TNFα play important roles.
At confluence TEER is measured and TNFα along with compounds are added as described above. Compound-induced TEER is determined after correction with measurement prior to treatment.

J82 = J82 bladder cancer cell viability (Real-Time-Glo); assay type: cell-based; conditions: Homo sapiens, 72 hr, read-out: IC50, Cell line: J82
Procedure: To determine the plating density for cell viability assays, for each cell line, cells were counted and diluted to final densities of 2.5, 5, 10 and 20 thousand per 100 μl of their respective growth media per well in 96 well plates. A Promega Real-Time-Glo cell viability kit was used to determine the optimal concentration for cell plating so that each cell line would be within the linear part of its growth curve after 72 hrs in culture. For the determination of test compound IC50s different cancer cell lines were plated in 96 well plates in the pre-determined optimal density for each cell line. Test compounds were then added at different concentrations for the creation of six-point curve and cell density was determined using the Promega Real-Time-Glo cell viability kit after 24, 48, and 72 hrs in culture. Test compound 72 hr IC50s were calculated using the AAT Bioquest IC50 calculator.

[2] = Formulation visual stability (DMA/PG/PEG 300/water); assay type: physicochemical; conditions: 25° C., 10-11 mg/mL in DMA/PG/PEG 300/Water
Procedure: All formulations were conducted with FDA approved excipients and with high purity material such as USP grade quality. Formulation stability of test articles are performed using HPLC purity method described within analytical section. This formula may be used for oral administration of the compounds described herein; […]. Since these compounds have high solubility in lower pH as described in the solubility study section, the intervenous delivery is performed with 100% phosphate buffer solution of pH 6.5 allowing up to 7 mg/mL concentration. The formulated test articles can be store at 4° C. Prior to dosing, it should be warmed and vortexed for about 1 min to make a homogenous solution. If needed, filter through 0.2 μM syringe filter to maintain clean and sterile.

pH solubility = assay type: physicochemical; conditions: for solubility at 24 h: aqueous solution, thermodynamic from solid, read-out: Solubility Concentration; for solubility higher than the solubility of compound 201: pH 7.4
Procedure: Saturated solutions of selected compounds were prepared at pH 1, 4, 6.5, and 7.4. The pH conditions selected are within the extremes of the normal physiological pH of the human gastrointestinal tract. Solubility testing of drug under different pH conditions was carried out by adding an excess amount of drug to each pH condition initiating with 1 mg/mL and then confirmed saturation by visual observation of undissolved material. The saturated solutions are continuously shaking at 6,000 rpm for 24 hours at room temperature. The saturated solutions were filtered through Millipore 0.22 um PVDF hydrophilic filters and subjected to HPLC to evaluate the solubility concentration of the test compound. Filtered saturated solutions were diluted with acetonitrile:water (50:50) within the calibration standard curve. A calibration curve of test compound contained […] standards at concentrations 0.25, 0.5, 1.0, 5.0, 10, 25, 50 and 100 μg/mL were prepared in acetonitrile:water (50:50).
Compounds were measured in filtered saturated solution using an Agilent 1260 Infinity II Lab LC Series HPLC (1260 quat pump, 1260 vial autosampler, ICC column oven, 1260 DAD WR detector). The chromatographic separation was achieved by Phenomenex Synergi Polar RP column (150×4.6 mm, 4 μm, 80 Å). The mobile phase was gradient (A: water with 0.1% trifluoroacetic acid, B: acetonitrile with 0.1% trifluoroacetic acid; A/B (99:1) from 0 minute; to A/B (1:99) from 0 to 10 minutes; A/B (1:99) from 10 to 12 minutes; to A/B (99:1) from 12 to 12.1 minutes; A/B (99:1) from 12.1 to 13 minutes) pumped at a flow rate of 1 mL/min. The detection of the eluent was monitored at 254 nm. The column oven was set at 35° C. Injection volume was 10 μL, unless otherwise specified. Data acquisition and peak integrations were obtained by OpenLAB CDS Version 2.4 (Agilent) operating with Windows (Microsoft).
Solubility is the ability of a drug to dissolve in an aqueous solution under different pH conditions. It is defined as the amount of substance that passes into solution to achieve a saturated solution at a constant temperature and pressure. The purpose of this study was to determine the solubility of selected compounds under different pH conditions and determine whether an oral solution is feasible or a suspension would be better to support the drug formulation process for pre-clinical studies. The pH conditions selected were within the extremes of the normal physiological pH of the human gastrointestinal tract, such as pH 1, pH 4, pH 6.5, and pH 7.4.

Naïve human CD4 T cells = test: Differentiation of naïve human CD4 T cells into FoxP3+ Tregs (flow cytometry); assay type: cell-based; conditions: 500 nM, 5 days; for Tregs (%): anti-CD3 and anti-CD28 100 ng/ml, CD4highFoxP3high population; for increase of the number of Tregs over untreated: baseline 3.2%
Procedure: Naïve human CD4 T cells were cultured in DMEM supplemented with 10% heat-inactivated FBS, 2 mM glutamine, 100 U/ml penicillin, 100 μg/ml streptomycin and 25 mM Hepes. Human CD4 T cells were treated with anti-CD3 and anti-CD28 (100 ng/ml) together with small molecule compounds (500 nM) for 5 days. FoxP3 and CD4 positive cells were stained and imaged in a BD LSRII flow cytometer. The gated area represents the percentage CD4^highFoxP3^high immune cell population. Furthermore, the same small molecule compounds were evaluated for their effects on IL17 protein levels in human CD4 T cells by using an ELISA assay (R&D systems, cat no. D1700).

C57BL/6 mice = test: MTD studies in mice; assay type: in vivo
[3] = CaCo-2, TNFα along with compounds

Row | Structure (SMILES) | TEER [1, 3] | epithelial barrier resistance [1] | IC50 (J82) [µM] | Appearance ([2]; 30 min) | Appearance ([2]; 1 h) | Appearance ([2]; 5 h) | Appearance ([2]; 24 h) | Appearance ([2]; 7 d) | transepithelial resistance after combined TNFα and IFNγ exposure [1] | TEER ([1]; vs control group) | solubility at 24 h (pH solubility; pH 6.5, aqueous buffer) [µg/mL] | solubility at 24 h (pH solubility; pH 7.4, aqueous buffer) [µg/mL] | solubility higher than the solubility of compound 201 (pH solubility) [fold] | Tregs (%) (Naïve human CD4 T cells) | increase of the number of Tregs over untreated (Naïve human CD4 T cells) [fold] | effects in weight change (MTD studies) (C57BL/6 mice; 50 mg/kg daily oral) | solubility at 24 h (pH solubility; pH 1, simulated gastric fluid) [µg/mL] | solubility at 24 h (pH solubility; pH 4, aqueous buffer) [µg/mL] | effects in weight change (MTD studies) (C57BL/6 mice; mouse, in vivo, po)
1 | COc1cc2c(Nc3ccncc3)nc(N3CCC(F)(F)CC3)nc2cc1OCCCN1CCCC1 [Compound 7, 2-(4,4-difluoropiperidin-1-yl)-6-methoxy-N-(pyridin-4-yl)-7-(3-(pyrrolidin-1-yl)propoxy)quinazolin-4-amine] | − | recovered epithelial barrier resistance levels back to those of untreated cells | 1 to 5 |  |  |  |  |  |  |  |  |  |  |  |  |  |  |  | 
2 | COc1cc2c(NC3CCOCC3)nc(N3CCCC3)nc2cc1OCCCN1CCCC1 [Compound 164, 6-methoxy-2-(pyrrolidin-1-yl)-7-(3-(pyrrolidin-1-yl)propoxy)-N-(tetrahydro-2H-pyran-4-yl)quinazolin-4-amine] | ++ |  |  |  |  |  |  |  |  |  |  |  |  |  |  |  |  |  | 
3 | COc1cc2c(NC3CCOCC3)nc(N3CCC(F)(F)CC3)nc2cc1OCCCN1CCCC1 [Compound 2, 2-(4,4-difluoropiperidin-1-yl)-6-methoxy-7-(3-(pyrrolidin-1-yl)propoxy)-N-(tetrahydro-2H-pyran-4-yl)quinazolin-4-amine] |  | recovered epithelial barrier resistance levels back to those of untreated cells |  | clear | clear | clear | clear | clear | ameliorated the disruptive effects | + | 27500 | 449 | 40 | 20.1 | 6.28 |  |  |  | 
4 | COc1cc2c(NC3CCN(C(C)C)CC3)nc(N3CCC(F)(F)CC3)nc2cc1OCCCN1CCCC1 [Compound 400, 2-(4,4-difluoropiperidin-1-yl)-N-(1-isopropylpiperidin-4-yl)-6-methoxy-7-(3-(pyrrolidin-1-yl)propoxy)quinazolin-4-amine, reference compound] |  | increased intestinal permeability | 5 to 10 | clear | clear | clear | clear | clear |  | − | 7510 | 11 |  | 4.7 | 1.46 | not cause any effects in weight change | 22800 | 13200 | 
5 | COc1cc2c(NC3CCS(=O)(=O)CC3)nc(N3CCC(F)(F)CC3)nc2cc1OCCCN1CCCC1 [Compound 1, 4-((2-(4,4-difluoropiperidin-1-yl)-6-methoxy-7-(3-(pyrrolidin-1-yl)propoxy)quinazolin-4-yl)amino)tetrahydro-2H-thiopyran 1,1-dioxide] |  | recovered epithelial barrier resistance levels back to those of untreated cells |  | clear | clear | clear | clear | clear | ameliorated the disruptive effects | + | 6050 | 424 | 40 |  |  |  |  | 11600 | not cause any effects in weight change
6 | COc1cc2c(NC3COC3)nc(N3CCC(F)(F)CC3)nc2cc1OCCCN1CCCC1 [Compound 11, 2-(4,4-difluoropiperidin-1-yl)-6-methoxy-N-(oxetan-3-yl)-7-(3-(pyrrolidin-1-yl)propoxy)quinazolin-4-amine] |  |  |  |  |  |  |  |  |  |  | 3180 | 245 |  |  |  |  |  | 4450 | 
